Measured values taken from patent publication US9540392B2, “Thienopyrimidines” (BAYER PHARMA AKTIENGESELLSCHAFT, priority 2012, dated 2017).

Target: T1, human full-length MKNK1 (Homo sapiens, UniProt Q9BUB5, T385D)
T1 construct: GST (N); purchased Carna Biosciences 02-145; host or cells: insect cells (baculovirus expression system)
Assay: MKNK1 kinase high ATP assay (TR-FRET)
Type: biochemical
Conditions: 2 mM ATP, after preincubation with MKNK1; read-out: MKNK1 IC50 (MKNK1 high ATP)
Summary of the method: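 Compound was preincubated 15 min at 22° C. with MKNK1 in 50 mM HEPES pH 7.5, 5 mM MgCl2, 1.0 mM DTT, then the reaction ran 30 min at 22° C. with 2 mM ATP and 0.06 μM biotinylated peptide (final).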

T1 sequence (Q9BUB5 1-424 isoform Q9BUB5-2 T344D): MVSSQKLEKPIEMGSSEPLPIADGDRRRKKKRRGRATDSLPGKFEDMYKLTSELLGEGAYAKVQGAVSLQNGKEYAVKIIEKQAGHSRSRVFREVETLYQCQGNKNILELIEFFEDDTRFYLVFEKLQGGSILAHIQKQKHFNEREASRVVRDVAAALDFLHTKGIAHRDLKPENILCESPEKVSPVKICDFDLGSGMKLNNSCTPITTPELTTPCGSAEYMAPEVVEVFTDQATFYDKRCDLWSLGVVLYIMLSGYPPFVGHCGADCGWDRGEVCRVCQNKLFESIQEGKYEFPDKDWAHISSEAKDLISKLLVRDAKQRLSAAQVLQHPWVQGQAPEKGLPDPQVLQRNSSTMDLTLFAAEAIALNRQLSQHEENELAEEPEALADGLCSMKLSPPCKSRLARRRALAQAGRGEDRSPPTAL

## COc1cc2[nH]ncc2cc1Nc1ncnc2sc3c(c12)CCC(C(=O)N(C)CCO)C3 (racemic) [Example 172, (RS)—N-(2-Hydroxyethyl)-4-[(6-methoxy-1H-indazol-5-yl)amino]-N-methyl-5,6,7,8-tetrahydro[1]benzothieno[2,3-d]pyrimidine-7-carboxamide]
  IC50: 0.4 nM

## COc1cc2[nH]ncc2cc1Nc1ncnc2sc3c(c12)CCC(C(=O)O)C3 (centres unmarked) [Example 57, 4-[(6-Methoxy-1H-indazol-5-yl)amino]-5,6,7,8-tetrahydro[1]benzothieno[2,3-d]pyrimidine-7-carboxylic acid]
  IC50: 7 nM

## CC(=O)N[C@@H]1CCN(C(=O)C2CCc3c(sc4ncnc(Nc5ccc6[nH]ncc6c5)c34)C2)C1 (mixture of isomers) [Example 124, (RS)-N-(1-{[4-(1H-indazol-5-ylamino)-5,6,7,8-tetrahydro[1]benzothieno[2,3-d]pyrimidin-7-yl]carbonyl}pyrrolidin-3-yl)acetamide]
  IC50: 8 nM

## O=C(NCc1cccs1)C1CCc2c(sc3ncnc(Nc4ccc5[nH]ncc5c4)c23)C1 (racemic) [Example 90, (RS)-4-(1H-indazol-5-ylamino)-N-(thiophen-2-ylmethyl)-5,6,7,8-tetrahydro[1]benzothieno[2,3-d]pyrimidine-7-carboxamide]
  IC50: 16.4 nM

## O=C(C1CCc2c(sc3ncnc(Nc4ccc5[nH]ncc5c4)c23)C1)N1CCN(c2cnccn2)CC1 (racemic) [Example 114, (RS)-[4-(1H-indazol-5-ylamino)-5,6,7,8-tetrahydro[1]benzothieno[2,3-d]pyrimidin-7-yl][4-(pyrazin-2-yl)piperazin-1-yl]methanone]
  IC50: 12.5 nM

## O=C(NCCOc1ccccc1)C1CCc2c(sc3ncnc(Nc4ccc5[nH]ncc5c4)c23)C1 (centres unmarked) [Example 31, 4-(1H-Indazol-5-ylamino)-N-(2-phenoxyethyl)-5,6,7,8-tetrahydro[1] benzothieno [2,3-d]pyrimidine-7-carboxamide]
  IC50: 4 nM

## O=C(NCCCn1ccnc1)C1CCc2c(sc3ncnc(Nc4ccc5[nH]ncc5c4)c23)C1 (racemic) [Example 93, (RS)-N-[3-(1H-imidazol-1-yl)propyl]-4-(1H-indazol-5-ylamino)-5,6,7,8-tetrahydro[1]benzothieno[2,3-d]pyrimidine-7-carboxamide]
  IC50: 9.9 nM

## O=C(NCc1ccc(F)cc1)C1CCc2c(sc3ncnc(Nc4ccc5[nH]ncc5c4)c23)C1 (centres unmarked) [Example 24, N-(4-Fluorobenzyl)-4-(1H-indazol-5-ylamino)-5,6,7,8-tetrahydro[1] benzothieno [2,3-d]pyrimidine-7-carboxamide]
  IC50: 3 nM

## COc1ccc(CCNC(=O)C2CCc3c(sc4ncnc(Nc5ccc6[nH]ncc6c5)c34)C2)cc1 (centres unmarked) [Example 25, 4-(1H-Indazol-5-ylamino)-N-[2-(4-methoxyphenyl)ethyl]-5,6,7,8-tetrahydro[1] benzothieno [2,3-d]pyrimidine-7-carboxamide]
  IC50: 3 nM

## O=C(C1CCc2c(sc3ncnc(Nc4ccc5[nH]ncc5c4)c23)C1)N1CCN(C2CCCC2)CC1 (racemic) [Example 131, (RS)-(4-cyclopentylpiperazin-1-yl)[4-(1H-indazol-5-ylamino)-5,6,7,8-tetrahydro[1]benzothieno[2,3-d]pyrimidin-7-yl]methanone]
  IC50: 13.5 nM

## CCNC(=O)C1CCc2c(sc3ncnc(Nc4ccc5[nH]ncc5c4)c23)C1 (centres unmarked) [Example 46, N-Ethyl-4-(1H-indazol-5-ylamino)-5,6,7,8-tetrahydro[1] benzothieno [2,3-d]pyrimidine-7-carboxamide]
  IC50: 10 nM

## CCN(CCO)C(=O)C1CCc2c(sc3ncnc(Nc4cc5cn[nH]c5cc4OC)c23)C1 (racemic) [Example 171, (RS)—N-Ethyl-N-(2-hydroxyethyl)-4-[(6-methoxy-1H-indazol-5-yl)amino]-5,6,7,8-tetrahydro[1]benzothieno[2,3-d]pyrimidine-7-carboxamide]
  IC50: 0.4 nM

## N#Cc1cccc(NC(=O)C2CCc3c(sc4ncnc(Nc5ccc6[nH]ncc6c5)c34)C2)c1 (racemic) [Example 79, (RS)—N-(3-Cyanophenyl)-4-(1H-indazol-5-ylamino)-5,6,7,8-tetrahydro[1]benzothieno[2,3-d]pyrimidine-7-carboxamide]
  IC50: 10.5 nM

## COC(=O)N1CCN(C(=O)C2CCc3c(sc4ncnc(Nc5ccc6[nH]ncc6c5)c34)C2)CC1 (racemic) [Example 160, (RS)-methyl4-{[4-(1H-indazol-5-ylamino)-5,6,7,8-tetrahydro[1]benzothieno[2,3-d]pyrimidin-7-yl]carbonyl}piperazine-1-carboxylate]
  IC50: 31.1 nM

## O=C(NCCc1c[nH]cn1)C1CCc2c(sc3ncnc(Nc4ccc5[nH]ncc5c4)c23)C1 (racemic) [Example 92, (RS)-N-[2-(1H-imidazol-4-yl)ethyl]-4-(1H-indazol-5-ylamino)-5,6,7,8-tetrahydro[1]benzothieno[2,3-d]pyrimidine-7-carboxamide]
  IC50: 9.8 nM

## CCOC(=O)C1CCc2c(sc3ncnc(Nc4cc5cn[nH]c5cc4Cl)c23)C1 (centres unmarked) [Example 53, Ethyl 4-[(6-chloro-1H-indazol-5-yl)amino]-5,6,7,8-tetrahydro[1]benzothieno[2,3-d]pyrimidine-7-carboxylate]
  IC50: 9 nM

## CCOC(=O)C1CCc2c(sc3ncnc(Nc4ccc5[nH]nc(C)c5c4)c23)C1 (racemic) [Example 61, (RS)-Ethyl 4-[(3-methyl-1H-indazol-5-yl)amino]-5,6,7,8-tetrahydro[1]benzothieno[2,3-d]pyrimidine-7-carboxylate]
  IC50: 1020 nM

## CCOc1cc2[nH]ncc2cc1Nc1ncnc2sc3c(c12)CCC(C(=O)N(C)CC(F)F)C3 (racemic) [Example 226, (RS)—N-(2,2-Difluoroethyl)-4-[(6-ethoxy-1H-indazol-5-yl)amino]-N-methyl-5,6,7,8-tetrahydro[1]benzothieno[2,3-d]pyrimidine-7-carboxamide]
  IC50: 0.7 nM

## CC(C)Oc1cc2[nH]ncc2cc1Nc1ncnc2sc3c(c12)CCC(C(=O)N1CCC1)C3 (racemic) [Example 219, (RS)-Azetidin-1-yl(4-{[6-(propan-2-yloxy)-1H-indazol-5-yl]amino}-5,6,7,8-tetrahydro[1]benzothieno[2,3-d]pyrimidin-7-yl)methanone]
  IC50: 0.5 nM

## COc1cc2[nH]ncc2cc1Nc1ncnc2sc3c(c12)CCC(C(=O)N1CC2(CCO2)C1)C3 (racemic) [Example 260, (RS)-{4-[(6-Methoxy-1H-indazol-5-yl)amino]-5,6,7,8-tetrahydro[1]benzothieno[2,3-d]pyrimidin-7-yl}(1-oxa-6-azaspiro[3.3]hept-6-yl)methanone]
  IC50: 0.7 nM

## O=C(Nc1ccccc1)C1CCc2c(sc3ncnc(Nc4ccc5[nH]ncc5c4)c23)C1 (centres unmarked) [Example 5, 4-(1H-Indazol-5-ylamino)-N-phenyl-5,6,7,8-tetrahydro[1]benzothieno[2,3-d]pyrimidine-7-carboxamide]
  IC50: 9 nM

## CN(Cc1ccccc1)C(=O)C1CCc2c(sc3ncnc(Nc4ccc5[nH]ncc5c4)c23)C1 (racemic) [Example 101, (RS)-N-benzyl-4-(1H-indazol-5-ylamino)-N-methyl-5,6,7,8-tetrahydro[1]benzothieno[2,3-d]pyrimidine-7-carboxamide]
  IC50: 4.7 nM

## CCN(CCO)C(=O)C1CCc2c(sc3ncnc(Nc4cc5cn[nH]c5cc4OC(C)C)c23)C1 (racemic) [Example 214, (RS)—N-ethyl-N-(2-hydroxyethyl)-4-{[6-(propan-2-yloxy)-1H-indazol-5-yl]amino}-5,6,7,8-tetrahydro[1]benzothieno[2,3-d]pyrimidine-7-carboxamide]
  IC50: 0.3 nM
